{"source": "patent US20200316077A1", "about": "“PHARMACEUTICAL COMPOSITION FOR THE TREATMENT OF CANCER” (IMPETIS BIOSCIENCES LTD., priority 2017, published 2020)", "key": {"[1]": {"test_system": "CT26 cells (colon cancer)", "test": "CT26 Colon Cancer Model: tumor suppression in mice", "format": "in vivo", "conditions": "BALB/c mice, 3 mg/kg, PO, BID, Day 22, n = 12", "description": "(§1) Tumor Suppression Activity of Adenosine A2A (Compound 31) and A2B (Compound 169) Antagonists in Xenograft Models of Cancer\n(§2) General Protocol: 6-8 weeks old BALB/c mice were acclimated and on Day 1 of the study, the mice were injected with 50 μL of medium containing 5×10^4 4T1 cells (breast cancer) or 5×10^5 CT26 cells (colon cancer). On day 8 or 9, the mice were segregated into different groups and treated orally with either vehicle (1% Tween-80+0.5% Carboxymethylcellulose in water) or test compound [(Compound 32 5-Amino-3-[2-[4-[2-fluoro-4-(2-methoxyethoxy)phenyl]piperazin-1-yl]ethyl]-8-(2-furyl)-1-methyl-[1,2,4]triazolo[5,1-f]purin-2-one (32) & Phosphoric acid mono-{2-cyano-6-oxo-1-propyl-8-[1-(3-trifluoromethyl-benzyl)-1H-pyrazol-4-yl]-1,6-dihydro-purin-7-ylmethyl} ester (335)] in vehicle. The treatment was BID for 22 days (colon cancer) or 28 days (breast cancer). At the end of the study, the tumor volume was measured as (length X breadth)/2. Data were presented as % reduction compared to the tumor volume in vehicle treated animals."}, "[2]": {"test_system": "4T1 cells (breast cancer)", "test": "4T1 Breast Cancer Model: tumor suppression in mice", "format": "in vivo", "conditions": "BALB/c mice, 3 mg/kg, PO, BID, Day 28, n = 12", "description": "as §1, §2"}}, "data": [{"smiles": "CCCn1c(C#N)nc2nc(-c3cnn(Cc4cccc(C(F)(F)F)c4)c3)n(COP(=O)(O)O)c2c1=O", "note": "[Compound 335, Phosphoric acid mono-{2-cyano-6-oxo-1-propyl-8-[1-(3-trifluoromethyl-benzyl)-1H-pyrazol-4-yl]-1,6-dihydro-purin-7-ylmethyl} ester]", "values": [{"measurement": "% decrease in Tumor growth vs. vehicle On Day 22", "setting": "[1]", "result": 23.90, "unit": "%"}, {"measurement": "% decrease in Tumor growth vs. vehicle On Day 28", "setting": "[2]", "result": 46.40, "unit": "%"}]}]}
